# Experiments:
# CETP [1] = molecular target: T1, CETP (Homo sapiens, UniProt P11597); experiment: Assay of CETP Inhibition using Purified Components (Reconstituted Buffer Assay); format: biochemical; parameters: made in house; host or cells: CHO cells (serum-free conditioned medium); conditions: transfer of [3H]CE from HDL to LDL
# T1 sequence (P11597 18-493): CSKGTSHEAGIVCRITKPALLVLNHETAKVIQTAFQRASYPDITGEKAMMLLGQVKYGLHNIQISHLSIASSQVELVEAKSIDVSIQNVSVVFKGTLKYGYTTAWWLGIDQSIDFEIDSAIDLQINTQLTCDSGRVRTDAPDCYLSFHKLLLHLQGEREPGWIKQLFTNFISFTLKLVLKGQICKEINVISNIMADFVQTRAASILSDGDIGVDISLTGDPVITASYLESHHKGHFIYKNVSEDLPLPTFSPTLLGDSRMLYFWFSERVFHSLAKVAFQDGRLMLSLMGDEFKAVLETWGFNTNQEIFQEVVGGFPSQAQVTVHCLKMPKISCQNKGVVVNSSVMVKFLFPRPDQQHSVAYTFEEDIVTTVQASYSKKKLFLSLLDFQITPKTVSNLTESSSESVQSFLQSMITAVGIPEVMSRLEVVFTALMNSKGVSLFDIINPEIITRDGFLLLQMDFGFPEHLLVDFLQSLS
# Summary of the method: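 Transfer of radiolabeled cholesteryl ester from HDL to LDL was run for 2 h at 37 °C in pH 7.4 Tris buffer with 1% BSA, using purified CHO-expressed human CETP. Precipitated LDL radioactivity, measured by scintillation after dextran sulfate/MgCl2 precipitation and filtration, yielded the IC50.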
# CETP [2] = molecular target: T1, CETP; experiment: Assay of CETP Inhibition in Human Plasma; format: biochemical; parameters: Blood was obtained from healthy volunteers, recruited from the personnel of Monsanto Company; from tissue; host or cells: human EDTA plasma pool from healthy volunteers; conditions: transfer of [3H]CE from HDL to VLDL and LDL
# Description: Assay of CETP Inhibition in Human Plasma
# Blood was obtained from healthy volunteers, recruited from the personnel of Monsanto Company, Saint Louis, Mo. Blood was collected in tubes containing EDTA (EDTA plasma pool). The EDTA human plasma pool, previously stored at −20° C., was thawed at room temperature and centrifuged for 5 minutes to remove any particulate matter. […] Equal volumes (396 μL) of the plasma containing the [^3H]CE-HDL were added by pipette into micro tubes (Titertube®, Bio-Rad laboratories, Hercules, Calif.). Inhibitor compounds, dissolved as 20-50 mM stock solutions in DMSO, were serially diluted in DMSO (or an alternative solvent in some cases, such as dimethylformamide or ethanol). Four μL of each of the serial dilutions of inhibitor compounds or DMSO alone were then added to each of the tubes containing plasma (396 μL). After mixing, triplicate aliquots (100 μL) from each plasma tube were then transferred to wells of 96-well round-bottomed polystyrene microtiter plates (Corning, Corning, N.Y.). Plates were sealed with plastic film and incubated at 37° C. for 4 hours. “Test” samples contained plasma with dilutions of inhibitor compounds. “Control” samples contained plasma with DMSO diluted to the same concentration as the test samples, but without inhibitor. “Blank” samples were prepared as “control” samples, but were left in the micro tubes at 4° C. for the 4 hour incubation and were then added to the microtiter wells at the end of the incubation period. VDL and LDL were precipitated by the addition of 10 μL of precipitating reagent (1% (w/v) dextran sulfate (Dextralip50)/0.5 M magnesium chloride, pH 7.4) to all wells. The wells were mixed on a plate mixer and then incubated at ambient temperature for 10 min. The plates were then centrifuged at 1000× g for 30 min at 10° C. The supernatants (50 μL) from each well were then transferred to Picoplate™ 96 plate wells (Packard, Meriden, Conn.) containing Microscint™-40 (Packard, Meriden, Conn.). The plates were heat-sealed (TopSeal™-P, Packard, Meriden, Conn.) according to the manufacturer's directions and mixed for 30 min. Radioactivity was measured on a microplate scintillation counter (TopCount, Packard, Meriden, Conn.). The maximum percentage transfer in the control wells (% transfer) was determined using the following equation: [formula]
# The percentage of transfer relative to the control (% control) was determined in the wells containing inhibitor compounds was determined as follows: [formula]
# IC50 values were then calculated from plots of % control versus concentration of inhibitor compound.
# [3] = Inhibition of CETP activity in reconstituted buffer assay, read-out: IC50
# [4] = Inhibition of CETP activity in human plasma assay, read-out: IC50
# [5] = IC50, Inhibition of CETP activity in reconstituted buffer assay
SMILES,IC50 (CETP [1]; [3]) [µM],IC50 (CETP [2]; [4]) [µM],further results
Cc1ccc(CN(CC(O)C(F)(F)F)c2cccc(F)c2)cc1 (stereo not shown) [Example 33],15,500,
OC(CN(Cc1cccc(C(F)(F)F)c1)c1ccccc1)C(F)(F)F (stereo not shown) [Example 35],16,> 200,
OC(CN(Cc1cccc(OC(F)(F)F)c1)c1cccc(Br)c1)C(F)(F)F (stereo not shown) [Example 36],4,> 200,
OC(CN(Cc1cccc(OC(F)(F)F)c1)c1cccc(C(F)(F)F)c1)C(F)(F)F (stereo not shown) [Example 42],7,80,
OC(CN(Cc1cccc(OC(F)(F)C(F)F)c1)c1cccc(F)c1)C(F)(F)F (stereo not shown) [Example 43],4,110,
OC(CN(Cc1ccc(OC(F)(F)F)cc1)c1cccc(Oc2ccccc2)c1)C(F)(F)F (stereo not shown) [Example 63],,,"IC50 (CETP [1]; [5]): 3.5 µM; IC50 (CETP [2]; IC50, Inhibition of CETP activity in human plasma assay): 120 µM"
OC(CN(Cc1cccc(OC(F)(F)F)c1)c1cccc(-c2ccccc2)c1)C(F)(F)F (stereo not shown) [Example 66],4,120,
OC(CN(Cc1cccc(OC(F)(F)C(F)F)c1)c1cc(F)ccc1F)C(F)(F)F (stereo not shown) [Example 70],2,65,
OC(CN(Cc1cccc(OC(F)(F)C(F)F)c1)c1cccc(OC(F)(F)F)c1)C(F)(F)F (stereo not shown) [Example 71],1.2,36,
OC(CN(Cc1ccc(C(F)(F)F)cc1)c1ccc(F)c(C(F)(F)F)c1)C(F)(F)F (stereo not shown) [Example 75],7,200,
OC(CN(Cc1cccc(OC(F)(F)F)c1)c1ccc2ccccc2c1)C(F)(F)F (stereo not shown) [Example 76],6,> 200,
OC(CN(Cc1cccc(OC(F)(F)F)c1)c1ccc(-c2ccccc2)cc1)C(F)(F)F (stereo not shown) [Example 79],1.5,60,
OC(CN(Cc1cccc(OC(F)(F)C(F)F)c1)c1ccc(-c2ccccc2)cc1)C(F)(F)F (stereo not shown) [Example 87],4,60,
OC(CN(Cc1cccc(OC(F)(F)F)c1)c1ccc2c(c1)OC(F)(F)C(F)(F)O2)C(F)(F)F (stereo not shown) [Example 89],2.3,60,
OC(CCl)COc1cccc(CN(CC(O)C(F)(F)F)c2cccc(OC(F)(F)F)c2)c1 (stereo not shown) [Example 104],3,> 100,
OC(CN(Cc1cccc(Oc2cccc(C(F)(F)F)c2)c1)c1cccc(Oc2ccccc2)c1)C(F)(F)F (stereo not shown) [Example 115],3,> 100,
"OC(CN(Cc1cccc(-c2ccccc2C(F)(F)F)c1)c1cccc(Oc2ccccc2)c1)C(F)(F)F (stereo not shown) [Example 600, 3-[(3-phenoxyphenyl)[[2′-(trifluoromethyl)[1,1′-biphenyl]-3-yl]methyl]amino]-1,1,1-trifluoro-2-propanol]",,> 100,
OC(CN(Cc1ccccc1Cl)Cc1ccccc1C(F)(F)F)C(F)(F)F (stereo not shown) [compound 177],> 100,,
Cc1ccc(CN(Cc2cccc(F)c2)CC(O)C(F)(F)F)cc1 (stereo not shown) [compound 178],> 100,,
Cc1ccc(CN(Cc2ccc(F)cc2)CC(O)C(F)(F)F)cc1 (stereo not shown) [compound 179],> 100,,
Cc1cccc(CN(Cc2cccc(F)c2)CC(O)C(F)(F)F)c1 (stereo not shown) [compound 180],> 100,,
Cc1ccc(CN(Cc2ccccc2F)CC(O)C(F)(F)F)cc1 (stereo not shown) [compound 181],> 100,,
OC(CN(Cc1cccc(OC(F)(F)F)c1)Cc1cccc(OC(F)(F)F)c1)C(F)(F)F (stereo not shown) [compound 192],,,IC50 (CETP [1]; [5]): 23 µM
OC(CN(Cc1cccc(Oc2ccccc2)c1)Cc1cccc(OC(F)(F)F)c1)C(F)(F)F (stereo not shown) [compound 195],,,IC50 (CETP [1]; [5]): 30 µM

# Now from value to compound, other results behind:
IC50 (CETP [1]; [3]) [µM],IC50 (CETP [2]; [4]) [µM],SMILES,further results
> 100,,Cc1cccc(CN(Cc2ccc(F)cc2)CC(O)C(F)(F)F)c1 (stereo not shown) [compound 182],
> 100,,Cc1cccc(CN(Cc2ccccc2F)CC(O)C(F)(F)F)c1 (stereo not shown) [compound 183],
> 100,,OC(CN(Cc1cccc(C(F)(F)F)c1)Cc1ccccc1F)C(F)(F)F (stereo not shown) [compound 184],
15,,OC(CN(Cc1cccc(Cl)c1)Cc1cccc(C(F)(F)F)c1)C(F)(F)F (stereo not shown) [compound 185],
15,,OC(CN(Cc1ccc(Cl)cc1)Cc1cccc(C(F)(F)F)c1)C(F)(F)F (stereo not shown) [compound 186],
> 100,,OC(CN(Cc1cccc(C(F)(F)F)c1)Cc1ccccc1Cl)C(F)(F)F (stereo not shown) [compound 187],
> 100,,OC(CN(Cc1cccc(F)c1)Cc1ccccc1C(F)(F)F)C(F)(F)F (stereo not shown) [compound 188],
> 100,,OC(CN(Cc1ccc(F)cc1)Cc1ccccc1C(F)(F)F)C(F)(F)F (stereo not shown) [compound 189],
> 100,,OC(CN(Cc1cccc(F)c1)Cc1cccc(C(F)(F)F)c1)C(F)(F)F (stereo not shown) [compound 190],
> 100,,OC(CN(Cc1ccc(F)cc1)Cc1cccc(C(F)(F)F)c1)C(F)(F)F (stereo not shown) [compound 191],
10,,OC(CN(Cc1cccc(Cl)c1)Cc1cccc(OC(F)(F)F)c1)C(F)(F)F (stereo not shown) [compound 193],
7,,OC(CN(Cc1cccc(Br)c1)Cc1cccc(OC(F)(F)F)c1)C(F)(F)F (stereo not shown) [compound 194],
40,,OC(CN(Cc1ccc(-c2ccccc2)cc1)Cc1cccc(OC(F)(F)F)c1)C(F)(F)F (stereo not shown) [compound 196],
18,,O=[N+]([O-])c1cccc(CN(Cc2cccc(OC(F)(F)F)c2)CC(O)C(F)(F)F)c1 (stereo not shown) [compound 197],
15,,OC(CN(CCc1cccc(F)c1)Cc1cccc(OC(F)(F)C(F)F)c1)C(F)(F)F (stereo not shown) [compound 198],
9.2,,COc1cc(N(Cc2cccc(C(F)(F)F)c2)CC(O)C(F)(F)F)cc(C(F)(F)F)c1 (stereo not shown) [compound 215],
8.1,,OC(CN(Cc1cccc(OC(F)(F)C(F)F)c1)c1cccc(Sc2ccccc2)c1)C(F)(F)F (stereo not shown) [compound 290],
8.4,,COc1ccc(Sc2cccc(N(Cc3cccc(OC(F)(F)C(F)F)c3)CC(O)C(F)(F)F)c2)cc1 (stereo not shown) [compound 291],
1.7,,CC(C)C(O)c1cccc(N(Cc2cccc(OC(F)(F)C(F)F)c2)CC(O)C(F)(F)F)c1 (stereo not shown) [compound 584],
4.2,,Cc1ccc(CN(CC(O)C(F)(F)F)c2cccc(Oc3ccccc3)c2)cc1-c1ccco1 (stereo not shown) [compound 594],
10,,CCN(C)C(=O)c1cccc(CN(CC(O)C(F)(F)F)c2cccc(Oc3ccccc3)c2)c1 (stereo not shown) [compound 613],
> 100,,CCCN(C)C(=O)c1cccc(CN(CC(O)C(F)(F)F)c2cccc(Oc3ccccc3)c2)c1 (stereo not shown) [compound 614],
> 100,,CCCCN(C)C(=O)c1cccc(CN(CC(O)C(F)(F)F)c2cccc(Oc3ccccc3)c2)c1 (stereo not shown) [compound 615],
18,,O=C(c1cccc(CN(CC(O)C(F)(F)F)c2cccc(Oc3ccccc3)c2)c1)N1CCCC1 (stereo not shown) [compound 616],
9.3,,CC(C)CC(=O)c1cccc(CN(CC(O)C(F)(F)F)c2cccc(Oc3ccccc3)c2)c1 (stereo not shown) [compound 621],
1.6,,OC(CN(Cc1cccc(OC(F)(F)C(F)F)c1)c1cc(Oc2ccc(F)cc2)cc(C(F)(F)F)c1)C(F)(F)F (stereo not shown) [compound 644],
15,,OC(CN(Cc1cccc(Cl)c1)Cc1cccc(OC(F)(F)F)c1)C(F)(F)F (stereo not shown) [compound 694],

# From patent US6723753B2, “Substituted n-benzyl-n-phenyl aminoalcohol compounds useful for inhibiting cholesteryl ester transfer protein activity” (Pharmacia Corporation, priority 2002, dated 2004)
